TGI and GI50 data for 45 molecules are collected here from PubChem BioAssay (NCI).

“And” between values parts separate entries of the source, which are not always exact repeats. Equal values may be shown once.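 Grown in 96-well plates, cells were treated for 48 hours with each compound at five concentrations. Insufficient inhibition: endpoint recorded as highest concentration tested. GI50 = concentration required for 50% inhibition of growth. TGI marks complete inhibition of growth.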 Where a SMILES comes first, the peptide text is derived from it.

Among the test systems are OVCAR-8 ovarian; OVCAR-3 ovarian; MALME-3M melanoma.
What all share (experiment): DTP human tumour cell line panel, 48 h

The term TGI denotes the concentration at which net growth stops. A lower TGI goes with more potent growth arrest. Turning to `C=CCC1C2CCC(O[Si](C(C)C)(C(C)C)C(C)C)(C(C(=O)OC)C2)C1O` (stereo not given), the TGI with OVCAR-8 ovarian and with OVCAR-3 ovarian was more than 100 µM each time.
Regarding `Cc1[nH]c2ccccc2c1C1=CC(=O)N(c2ccccc2)C1=O`, the TGI in the assay on OVCAR-8 ovarian is 50 µM; with MALME-3M melanoma it was 41.9 µM; in the assay on OVCAR-3 ovarian it was more than 100 µM.
The like results for `C#CC(O)Cc1ccc(OC)c2occc12` (stereo not given) were, in that order, more than 100 µM, more than 100 µM and more than 100 µM.
Take `O=[N+]([O-])c1ccc2[nH]c(O)c(N=NC(=S)Nc3ccccc3)c2c1`: the values for the TGI in the assay with OVCAR-8 ovarian and in the assay with OVCAR-3 ovarian were 31.8 µM and 22.6 µM, respectively.
Consider `CC(=O)NC1C(OCc2ccccc2)OC(CO)C(O)C1OCC(=O)N1CCCC1C(=O)NC(CCC(=O)NCCCCCNc1c2ccccc2nc2cccc([N+](=O)[O-])c12)C(N)=O` (stereo not given), for which the figures for the TGI in the assay on OVCAR-8 ovarian, in the assay with MALME-3M melanoma and in the assay with OVCAR-3 ovarian were 0.0817 µM, 0.0425 µM and 0.142 µM, respectively.
The like results for `Nc1nc(NCCOCP(=O)(O)O)c(N)c(=O)[nH]1` were, in that order, more than 100 µM, more than 100 µM and more than 100 µM.
Taken in the same sequence, the figures for `S=C(Nc1cccc(C2(N3CCCCC3)CCCCC2)c1)Nc1cccc(C2(N3CCCCC3)CCCCC2)c1` were 59.2 µM, 36.1 µM and 50.5 µM.
Taken in the same sequence, the figures for `CC1=C(C)C(=O)C(C2=C(C3=CC(=O)C(C)=C(C)C3=O)C(=O)c3ccccc3C2=O)=CC1=O` were 8.07 µM, 2.8 µM and 15.8 µM.
`CC(C)(CN)SCc1ccccc1`: the TGI in the assay with OVCAR-8 ovarian, in the assay on MALME-3M melanoma and in the assay on OVCAR-3 ovarian was more than 100 µM in each case.
`Cc1cc(C(O)CNC(C)CCn2cnc3c2c(=O)n(C)c(=O)n3C)ccc1O` (stereo not given): the TGI in the assay with OVCAR-8 ovarian, in the assay with MALME-3M melanoma and with OVCAR-3 ovarian was more than 100 µM in each case.
Take `CC(C)(C)N=c1n(C(C)(C)C)oc(=O)n1-c1ccccc1`: the TGI with OVCAR-8 ovarian, in the assay on MALME-3M melanoma and with OVCAR-3 ovarian was more than 50 µM in each case.
Turning to `CC/C=C/C(/C=C/C[C@]1(CC)C[C@H](CC)[C@H](CC(=O)O)OO1)CC` (stereo not given in full), the values for the TGI with OVCAR-8 ovarian, in the assay with MALME-3M melanoma and in the assay with OVCAR-3 ovarian were 13.1 µM, 29.3 µM and 4.17 µM, respectively.
Taken in the same sequence, the figures for `COc1cccc(C(=O)N[C@@H]2[C@H](O)[C@@H](CO)O[C@H]2n2cnc3c(N)ncnc32)c1` were more than 100 µM, more than 100 µM and more than 100 µM.
As to `O=C(Nc1ccc(S(=O)(=O)Nc2ncccn2)cc1)c1c2ccccc2nc2ccccc12`, the TGI with OVCAR-8 ovarian, with MALME-3M melanoma and with OVCAR-3 ovarian was more than 100 µM in each case.
With `CSc1nc(-c2ccc(Cl)cc2)c(C#N)c(=O)[nH]1`, the TGI in the assay with OVCAR-8 ovarian and with OVCAR-3 ovarian was more than 100 µM each time.
For `CCOC(=O)NC(=S)NC(C)c1ccccc1` (stereo not given), the TGI in the assay on OVCAR-8 ovarian, in the assay with MALME-3M melanoma and with OVCAR-3 ovarian was more than 100 µM in each case.
Usually GI50 stands for the concentration giving 50% growth inhibition. In the case of `CC(Nc1n[nH]c(=O)c2c1nnn2Cc1ccccc1)c1ccccc1` (stereo not given), the GI50 with OVCAR-8 ovarian is > 100 µM and 44.5 µM; with MALME-3M melanoma it was > 100 µM and 24.7 µM. In addition, the TGI with OVCAR-8 ovarian, in the assay with MALME-3M melanoma and in the assay with OVCAR-3 ovarian was more than 100 µM throughout.
With `c1cc(C[S+]2CCCC2)oc1C[S+]1CCCC1`, the TGI in the assay with OVCAR-8 ovarian, in the assay on MALME-3M melanoma and in the assay on OVCAR-3 ovarian was more than 100 µM in each case.
Turning to `COc1ccccc1Cn1[nH]c(=O)c2cc([N+](=O)[O-])ccc21`, the TGI with OVCAR-8 ovarian is more than 100 µM; with MALME-3M melanoma it was more than 100 µM; in the assay with OVCAR-3 ovarian it was 83 µM.
With `CCCCCCC(=O)OC[n+]1cccc(-c2c(COC(=O)NC(C)C)c(COC(=O)NC(C)C)c3n2CCC3)c1`, the TGI is more than 100 µM with OVCAR-8 ovarian, 98.5 µM with MALME-3M melanoma and more than 100 µM in the assay on OVCAR-3 ovarian.
Consider `CC[C@H](C)[C@H]1NC(=O)[C@@H](NC(=O)[C@@H](CC(C)C)N(C)C(=O)C2CCCN2C(=O)[C@H](C)O)[C@@H](C)OC(=O)[C@H](Cc2ccccc2)N(C)C(=O)[C@@H]2CCCN2C(=O)[C@H](CC(C)C)NC(=O)[C@@H](C)C(=O)[C@H](C(C)C)OC(=O)C[C@@H]1O` (stereo not given in full), for which the TGI with OVCAR-8 ovarian was 0.0461 µM; in the assay on MALME-3M melanoma it was 0.0213 µM; in the assay on OVCAR-3 ovarian, 0.0113 µM.
Taken in the same sequence, the figures for `CC(Cc1ccc2c(c1)OCO2)N(C)C(=O)C1=CCN(C)CC1` (stereo not given) were more than 100 µM, more than 100 µM and more than 100 µM.
Taken in the same sequence, the figures for `Cc1cc(-c2ccc(C(=O)C(c3ccccc3)(c3ccccc3)c3ccccc3)[nH]2)on1` were 42 µM, more than 100 µM and more than 100 µM.
The like results for `Nc1cc(N)c(N=Nc2cccc3c(S(=O)(=O)O)cccc23)cc1N=Nc1cc([N+](=O)[O-])ccc1O` were, in that order, more than 100 µM, 64 µM and more than 100 µM.
Take `C=CC[C@H]1[C@H](O[Si](C)(C)C(C)(C)C)C=CC(=O)[C@@H]1CC(=O)OCC`: the TGI in the assay with OVCAR-8 ovarian was 31.6 µM; in the assay with MALME-3M melanoma, 25.9 µM; with OVCAR-3 ovarian, 26.4 µM.
Taken in the same sequence, the figures for `COC(=O)CCC(C)[C@H]1CCC2C3C(C[C@H](OC(C)=O)[C@@]21C)[C@@]1(C)CCC2(C[C@H]1C[C@H]3OC(C)=O)OOC1(CCCCC1)OO2` (stereo not given in full) were more than 100 µM, 97.4 µM and more than 100 µM.
Taken in the same sequence, the figures for `CC(=O)Nc1nnc(S(=O)(=O)NC(=S)Nc2ccc(Cl)cc2)s1` were more than 100 µM, more than 100 µM and more than 100 µM.
Taken in the same sequence, the figures for `CN1CCCC(C(=O)OCC(=O)C2(O)CCC3C4CCC5=CC(=O)CCC5(C)C4C(O)CC32C)C1` (stereo not given) were 35.3 µM, 33.2 µM and 32.8 µM.
As for `CC(=O)/C(=C(/Br)I)c1ccccc1`, the TGI with OVCAR-8 ovarian stood at 28.1 µM; in the assay with MALME-3M melanoma, 23.1 µM; in the assay with OVCAR-3 ovarian it was 17.9 µM.
Taken in the same sequence, the figures for `CC(C)OP(=O)(OC(C)C)C(Nc1cccc(C(F)(F)F)c1)c1ccccc1` (stereo not given) were more than 100 µM, more than 100 µM and more than 100 µM.
The like results for `NCCCCCNOCCCN` were, in that order, more than 100 µM, more than 100 µM and more than 100 µM.
The like results for `COC(=O)C1(C)OC(C)=NC1(C(=O)OC)C(=O)OC` (stereo not given) were, in that order, more than 100 µM, more than 100 µM and more than 100 µM.
Consider `Cc1ccc(-n2cc(-c3ccc(Cl)cc3)c(C#N)c2N)cc1`, for which the TGI with OVCAR-8 ovarian came out at 30.5 µM; in the assay on MALME-3M melanoma it was 33.1 µM; in the assay on OVCAR-3 ovarian it was 29.1 µM.
Take `COC(=O)CNCC1OC2OC(C)(C)OC2C1N=[N+]=[N-]` (stereo not given): the TGI with OVCAR-8 ovarian and with OVCAR-3 ovarian was more than 100 µM in each case.
In the case of `O=c1c(Sc2ncccn2)c(Sc2ncccn2)cnn1CCl`, the TGI is 7.53 µM in the assay on OVCAR-8 ovarian, 4.25 µM with MALME-3M melanoma and 10.8 µM in the assay on OVCAR-3 ovarian.
The like results for `CC(=O)NC(CO)C(=O)NC(Cc1ccc(O)cc1)C(=O)NCC(N)=O` (stereo not drawn) (Ac-Ser-Tyr-Gly-NH2; configuration not given here) were, in that order, more than 100 µM, more than 100 µM and more than 100 µM.
With `N#Cc1c(N2CCOCC2)ncn(-c2ccc(Cl)cc2)c1=O`, the TGI with OVCAR-8 ovarian and with OVCAR-3 ovarian was more than 100 µM each time.
On to `CCOP(=O)(OCC)C(=C1C=C(C(C)(C)C)C(=O)C(C(C)(C)C)=C1)P(=O)(OCC)OCC`, for which the TGI is more than 10 µM with OVCAR-8 ovarian, 3.38 µM in the assay on MALME-3M melanoma and more than 5.55 µM with OVCAR-3 ovarian.
Taken in the same sequence, the figures for `COC1C(OC(N)=O)C(O)C(Oc2ccc3c(O)c(NC(=O)c4ccc(O)c(CC=C(C)C)c4)c(=O)oc3c2C)OC1(C)C` (stereo not given) were more than 100 µM, more than 100 µM and more than 100 µM.
As for `Cc1cn2c(/C=C3/C(=O)Nc4ccccc43)c(C)nc2s1`, the total growth inhibition concentration (TGI) in the assay with OVCAR-8 ovarian and in the assay with MALME-3M melanoma was more than 100 µM each time.
On to `Cn1nc(C(=O)N2CC(CCl)c3c2cc([N+](=O)[O-])c2ccccc32)cc1NC(=O)Nc1cc(C(=O)N2CC(CCl)c3c2cc([N+](=O)[O-])c2ccccc32)nn1C` (stereo not given), for which the concentration for total growth inhibition (TGI) in the assay with MALME-3M melanoma and in the assay with OVCAR-3 ovarian was more than 100 µM each time.
Regarding `Cc1ccc(Nc2cn(COCc3ccccc3)c(=O)[nH]c2=O)cc1`, the TGI with OVCAR-3 ovarian is more than 100 µM.
With `CCOC(=O)c1c(NC(=O)c2ccc(Br)cc2)sc2c1CCCC2`, the TGI in the assay on OVCAR-8 ovarian and with OVCAR-3 ovarian was more than 100 µM throughout.
With `CC(=O)C1C(=O)C(=O)N(c2ccc(Br)cc2)C1=O` (stereo not given), the TGI with OVCAR-8 ovarian and in the assay with OVCAR-3 ovarian was more than 100 µM in each case.
On to `CC1=C(C(=O)NC(C)(C)C)CC(C(=O)NC(C)(C)C)C(C)N1` (stereo not given), for which the TGI with OVCAR-8 ovarian and in the assay with OVCAR-3 ovarian was more than 100 µM throughout.
